The target in test [1] is T1, JNK3 (Rattus norvegicus, UniProt P49187).
T1 construct: cell lysates were prepared and JNK was immunoprecipitated with specific antibodies; endogenous in cells; host or cells: rat primary neuronal cultures; JNK3 immunoprecipitated from lysate
The test can be described thus: kinase assay (KA) on JNK3 immunoprecipitated from cell lysates. The test is classed as cell-based. The conditions noted are these: for JNK3 activity normalized to 0 h: NMDA + NIMoE. As for the experimental part:
(§1) JNK activity was measured with an in vitro kinase assay as described elsewhere (see, for e.g.: Khatlani et al., 2007). Briefly, cell lysates were prepared and JNK was immunoprecipitated with specific antibodies. The immnoprecipitates were then resuspended in 1× kinase buffer (Cell Signaling Technology™) supplemented with 200 μM ATP and 250 μg/ml GST-c-jun (1-89), and incubated at 30° C. for 30 min. Reactions were terminated by the addition of SDS-PAGE sample buffer. Phosphorylated c-jun was resolved by SDS-PAGE and detected with anti-p-c-jun.

The target in test [2] is zD17-JNK3 interaction (Rattus norvegicus, UniProt P49187). The test can be described thus: co-immunoprecipitation of zD17 with JNK3 in cortical neuronal cultures. The class given is cell-based. Set-up: diminished the co-immunoprecipitation of zD17 with JNK3; endogenous in cells; host or cells: primary cortical neurons of embryonic (E18-19) Wistar rat. How it is done: All animal experiments were approved by the Animal Care Committee of the University of British Columbia. Primary cortical cultures were prepared from Wistar rat (UBC Animal Care Centre, Vancouver, BC, Canada) brains at embryonic days 18-19. Cultures were maintained in Neurobasal medium supplemented with B27 and 0.5 mM glutamax (Invitrogen™) as described previously (Yang et al., 2009).
Chain of zD17-JNK3 interaction (P49187 whole entry): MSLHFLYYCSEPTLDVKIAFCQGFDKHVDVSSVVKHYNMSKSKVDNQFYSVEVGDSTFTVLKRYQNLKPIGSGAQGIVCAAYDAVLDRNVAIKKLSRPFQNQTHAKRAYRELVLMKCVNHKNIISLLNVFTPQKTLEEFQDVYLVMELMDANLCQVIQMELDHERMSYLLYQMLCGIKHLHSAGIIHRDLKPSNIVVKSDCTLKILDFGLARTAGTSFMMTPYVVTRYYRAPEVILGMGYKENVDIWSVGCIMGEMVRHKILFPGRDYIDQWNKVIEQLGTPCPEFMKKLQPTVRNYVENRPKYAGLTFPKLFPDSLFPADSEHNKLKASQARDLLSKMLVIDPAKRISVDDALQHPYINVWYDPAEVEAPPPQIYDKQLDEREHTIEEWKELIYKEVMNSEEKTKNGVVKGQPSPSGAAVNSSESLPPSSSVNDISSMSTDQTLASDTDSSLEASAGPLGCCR
The protocols for protein extraction have been described previously (Yang et al., 2009). For co-immunoprecipitation, cultured cells were washed with ice-cold PBS followed by incubation with 0.5 ml Gentle Lysis Buffer (GLB) containing 25 mM Tris-HCl (pH 7.4), 2 mM EDTA, 1 mM EGTA, 10 mM NaCl, 0.5% Triton X-100 and 10% Glycerol supplemented with the Complete Protease Inhibitor Tablets (Roche Applied Science™, Indianapolis, Ind., USA) and 1 mM PMSF. Total protein concentration was determined with the BioRad™ Protein Assay kit. Lysates were first precleaned by incubating with Protein A-Sepharose beads (Roche Applied Science™) for 1 h at 4° C., followed by incubation with indicated antibodies (>16 h at 4° C.) and protein A Sepharose bead (2 h at 4° C.). Lysates of rat brain tissues were precleaned with IgG and protein A-beads. Immunoprecipitates were washed three times with GLB buffer; boiled in 2× loading buffer with 1 mM dithiothreitol (DTT) for 3 min; and analyzed with SDS-PAGE as described previously (Yang et al., 2009). The relative intensities of the bands on immunoblots were analyzed and quantified using Image J™ (NIH).

In test [3] the test system is middle cerebral artery occlusion (MCAo). The test can be described thus: transient MCAo in SD rats, infarct volume (TTC histology). The test is classed as in vivo, Sprague-Dawley rat.
The test system of test [4] is cultured neurons. As to the kind of experiment: axonal development in cultured neurons (Tau-1 labelling). The class given is cell-based, rat. As for the experimental part:
For biochemical studies, neurons were seeded in six-well culture plates with a density of 7.5×10^5 cells per well. For LDH assay and cell death detection, 24-well culture plates were used with a neuron density of 2.5×10^5 cells per well. Neurons of 14-17 days in vitro (DIV) were used for experiments. […] HEK 293 cells were maintained in DMEM (Invitrogen™) supplemented with 10% fetal bovine serum and 1% penicillin/streptomycin. For protein expression in cell lines, cells were transfected with Calcium Phosphate Transfection reagent (Promega™, San Luis Obispo, Calif., USA) and used 24 h later as described previously (Yang et al., 2009). The JNK inhibitor, L-JNKI, was purchased from Alexis Biochemicals™ (San Diego, Calif.). Thrombin was obtained from BIOPUR™ (Bubendorf, Switzerland). Other assay reagents without indication were obtained from Sigma™.
Cultured hippocampal neurons on glass coverslips were used for immunostaining. After treatments indicated in the text, neurons were fixed with 2% paraformaldehyde for 3 min at room temperature followed by permeabilization with ice-cold methanol for 10 min at −20° C. The coverslips were then washed three times with PBS and immunostained with appropriate antibodies dissolved in PBS for 1 h at room temperature. After washing three times with PBS, coverslips were incubated with Alexa-labeled secondary antibodies from Invitrogen for an additional 1 h. For mitochondrial detection, neuronal cultures were incubated at 37° C. for 30 min with 2 μM MitoTracker-TR (Invitrogen™). Coverslips were then fixed and mounted with ProLong Gold Antifade Reagent (Invitrogen™). Fluorescence was captured using a Zeiss Observer Z1™ microscope and all images were analyzed with ImageJ™ and processed using Adobe Photoshop™.

Test [5] concerns caspase-3. The test can be described thus: NMDA-induced caspase-3 cleavage in neurons. The conditions noted are these: neuronal cultures. The class given is cell-based, rat.
For test [6], the system named is Bax and Cyt.c. As to the kind of experiment: NMDA-induced translocation of Bax and Cyt.c (mitochondria fractionation). The class given is cell-based, rat. The note with it: neuronal cultures. As for the experimental part: Cultured neurons were lysed on ice for 10 min in TEEN-SKM buffer containing 20 mM Tris-HCl (pH7.5), 10 mM KCl, 1.5 mM MgCl2, 1 mM EGTA, 1 mM EDTA, 1 mM DTT supplemented with the Complete Protease Inhibitor tablets. The lysates were homogenized with a 28^1/2G syringe for a total of 8 times on ice, followed by centrifugation twice at 700 g for 10 min at 4° C. The supernatant was then centrifuged at 10,000 g for 30 min at 4° C. to enrich mitochondria in the pellet. The cytosolic fraction was collected from the supernatant after further centrifugation at 100,000 g for 1 h at 4° C. 1× and 4×LB were added to the mitochondrial and cytosolic fractions, respectively. Equivalent amounts of samples were resolved by SDS-PAGE and blotted with antibodies against Cytochrome c and Bax.

In test [7] the test system is c-jun. The test can be described thus: NMDA-induced c-jun phosphorylation in neurons. The class given is cell-based, rat. The conditions noted are these: neuronal cultures.
The target of test [8] is T2, JNK2 (Rattus norvegicus, UniProt P49186).
T2 construct: JNK is immunoprecipitated from the cell lysate; endogenous in cells; host or cells: rat primary neuronal cultures; JNK2 immunoprecipitated from lysate
The test can be described thus: kinase assay (KA) on JNK2 immunoprecipitated from cell lysates. The class given is cell-based. The conditions noted are these: for JNK2 activity normalized to 0 h: NMDA + NIMoE. How it is done:
as §1

T1 sequence (P49187 whole entry): as above

For “HRYRWLTDLLSMVTTPAAPM (NIMoEscr scrambled NIMoE) [negative control peptide resulting from a scrambled NIMoE, reference compound]”, the “enhancement of JNK3 activity induced by NMDA” value in test [1] (neuronal cultures) is “did not selectively block enhancement”. Further, the “enhancement of the zD17-JNK3 interaction induced by NMDA/excitotoxicity” value in test [2] is “did not selectively block enhancement”. In test [3] (scrambled control peptide group, injection time not given), this sequence gave a total infarct volume of 212.60±37.6 mm^3.
As for “MTPLMWAAYRTHSVDPTRLL (listed as Homo sapiens) [NIMoE, peptide comprising motif-E of zD17, fused to the cell-membrane transduction domain of HIV-1 Tat for cell experiments]”, the “axon extension (length)” value in test [4] (NIMoE incubation, control 160.0±8.9) turned out to be 161.1±13.6. Moreover, in test [4] (chronic incubation in cultured neurons), the “effect on axon initiation and extension” value was “did not affect”. In test [4] (incubation of cultured neurons, Tau-1 marker), the “axon initiation rate normalized to control” value worked out at 98.6±0.2%. The “JNK3 activity normalized to 0 h” value is listed as 90.6±5.3% in test [1] (0.5 h) and 47.0±17.6% in test [1] (1 h). For the same sequence, in test [1] (neuronal cultures), the “JNK3 basal activity” value is “no effect”. Also, the “enhancement of JNK3 activity induced by NMDA” value in test [1] (neuronal cultures) is given as “selectively blocked the enhancement”. Besides, the “JNK3 basal activity, fold change to control” value in test [1] (pretreatment of cells 1 μM for 2 h) came to 0.89±0.10 fold. In addition, the “NMDA-induced caspase-3 cleavage” value in test [5] is “effectively blocked”. Moreover, the “enhancement of the zD17-JNK3 interaction induced by NMDA/excitotoxicity” value in test [2] is “selectively blocked the enhancement”. For the same sequence, the “zD17-JNK3 interaction (co-immunoprecipitation), baseline” value in test [2] (no NMDA) was “no effect”. Moreover, the “NMDA-induced translocation of Bax and Cyt.c” value in test [6] is recorded as “inhibited”. Besides, the NMDA-induced c-jun phosphorylation entry in test [7] was “able to prevent”. The “JNK2 activity normalized to 0 h” value in test [8] (0.5 h) is listed as 103.7±5.0%; in test [8] (1 h), 90.9±10.9%. The “enhancement of JNK2 activity” value in test [8] (NMDA, neuronal cultures) was “eliminated the enhancement”.
For the sequence “WAAYRTHSVD (listed as Homo sapiens) [NIMoEsh, shorter 10mer of NIMoE, primarily the loop region of motif-E (zD17 196-205)]”, in test [5], the “NMDA-induced caspase-3 cleavage” value is listed as “effectively blocked”. For the same sequence, the “NMDA-induced translocation of Bax and Cyt.c” value in test [6] is “inhibited”. Also, the “infarct volume compared with non-treated, saline-treated and scramble peptide-treated groups” value in test [3] (post-surgical interventions at 2 h or 4 h) is reported as “effective protection for the ischemic brain”. In addition, the total infarct volume in test [3] (single i.v. injection +2 h after MCAo onset) is 41.95±8.22 mm^3; in test [3] (single i.v. injection +4 h after MCAo onset), 78.74±28.50 mm^3; in test [3] (single i.v. injection −0.5 h (before MCAo onset), control 240.70±35.67) it was 43.43±9.82 mm^3. Besides, the “reduction of total infarct size” value in test [3] (single intravenous injection 30 min before MCAo) is given as “about 80%”. Also, in test [7], the NMDA-induced c-jun phosphorylation result is reported as “able to prevent”.

Values taken from US9458437B2, “Neuroprotective peptides that inhibit interaction between palmitoyl acyl transferase zinc-finger DHHC type containing 17 (zD17) and c-jun N-terminal kinase (JNK)” (The University of British Columbia, priority 2011, dated 2016).
